Assay results from ChEMBL document CHEMBL1201862, “PubChem BioAssay data set” (2004).
Blank lines part the entries; values can stand above or below the compound they belong to. Calls of active or inactive are those of the source. Unless noted, the rule behind the calls is not given here.

Experiments:
[1] = target: Muscarinic acetylcholine receptor M5 (Homo sapiens, UniProt P08912); test: M5 muscarinic receptor antagonist potency, dose response, cell-based, CHO-K1 hM5, Fluo-4 calcium flux, ACh EC80 (AID 743110); assay type: functional
[2] = target: Muscarinic acetylcholine receptor M5 (Rattus norvegicus, UniProt P08911); test: Discovery of Novel Antagonists of Muscarinic Receptor M5: Counterscreen against RAT M5.; assay type: functional
[3] = P. falciparum Dd2 growth inhibitors, dose response, SYBR Green, dry powder samples, set 9 (AID 1159568); assay type: functional, cell-based
[4] = P. falciparum Dd2 blood-stage growth inhibition, dose response, SYBR Green fluorescence, erythrocytes, dry powder, set 2 (AID 1159574); assay type: functional, cell-based
[5] = target: G-protein coupled receptor 183 (Homo sapiens, UniProt P32249); test: SAR confirmation of small molecule antagonists of the EBI2 receptor via a luminescent beta-arrestin assa.; assay type: functional
[6] = target: RNA-editing ligase 1, mitochondrial (Trypanosoma brucei brucei, UniProt P86926); test: TbREL1 ligase inhibitors, dose response, biochemical, fluorescence, Trypanosoma brucei (AID 1117295); assay type: functional
[7] = target: T1, Low molecular weight phosphotyrosine protein phosphatase (Homo sapiens, UniProt P24666); test: LMPTP phosphatase inhibitors, dose response, biochemical, OMFP substrate, fluorescence intensity, set 2 (AID 743307); assay type: functional
T1 sequence (P24666 whole entry): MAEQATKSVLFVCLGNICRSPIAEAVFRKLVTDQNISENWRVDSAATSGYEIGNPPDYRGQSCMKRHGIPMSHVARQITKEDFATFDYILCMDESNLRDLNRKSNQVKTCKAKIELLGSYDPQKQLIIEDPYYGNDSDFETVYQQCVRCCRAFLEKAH

[8] = target: T1, Low molecular weight phosphotyrosine protein phosphatase; test: LMPTP phosphatase inhibitors, colorimetric pNPP readout, dose response, orthogonal assay, biochemical, absorbance, pNPP substrate, LMPTP-A isoform, set 2 (AID 743308); assay type: functional
[9] = P. falciparum Dd2 growth inhibitors, dose response, SYBR Green, dry powder samples, set 4 (AID 1159572); assay type: functional, cell-based

Chain of Muscarinic acetylcholine receptor M5 (Rattus norvegicus, UniProt P08911) (P08911 whole entry): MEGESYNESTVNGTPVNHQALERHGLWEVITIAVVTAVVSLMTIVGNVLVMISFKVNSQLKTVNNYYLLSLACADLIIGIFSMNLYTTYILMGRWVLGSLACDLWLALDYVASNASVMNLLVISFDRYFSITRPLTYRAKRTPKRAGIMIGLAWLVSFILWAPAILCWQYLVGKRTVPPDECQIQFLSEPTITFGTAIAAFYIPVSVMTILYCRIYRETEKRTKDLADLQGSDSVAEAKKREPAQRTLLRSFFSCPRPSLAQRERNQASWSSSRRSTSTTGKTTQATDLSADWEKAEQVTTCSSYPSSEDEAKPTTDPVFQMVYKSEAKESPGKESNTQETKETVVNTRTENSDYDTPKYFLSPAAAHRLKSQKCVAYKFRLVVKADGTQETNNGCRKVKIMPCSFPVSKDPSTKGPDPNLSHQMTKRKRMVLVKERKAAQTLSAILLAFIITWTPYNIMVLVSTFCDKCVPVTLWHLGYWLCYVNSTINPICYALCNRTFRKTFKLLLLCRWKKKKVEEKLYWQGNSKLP
Chain of RNA-editing ligase 1, mitochondrial (P86926 whole entry): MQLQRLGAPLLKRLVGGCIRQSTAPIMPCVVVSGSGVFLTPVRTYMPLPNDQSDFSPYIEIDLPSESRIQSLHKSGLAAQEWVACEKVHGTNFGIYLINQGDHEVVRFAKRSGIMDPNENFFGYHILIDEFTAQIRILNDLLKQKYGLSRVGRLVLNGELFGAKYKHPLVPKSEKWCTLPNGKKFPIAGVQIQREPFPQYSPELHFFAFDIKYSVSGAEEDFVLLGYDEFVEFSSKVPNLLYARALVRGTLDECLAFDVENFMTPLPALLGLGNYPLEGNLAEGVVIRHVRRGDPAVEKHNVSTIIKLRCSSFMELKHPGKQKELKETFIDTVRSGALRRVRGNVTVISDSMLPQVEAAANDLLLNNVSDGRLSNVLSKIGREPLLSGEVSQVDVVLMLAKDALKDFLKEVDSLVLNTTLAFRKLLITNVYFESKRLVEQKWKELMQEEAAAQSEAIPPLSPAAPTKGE
Chain of Muscarinic acetylcholine receptor M5 (Homo sapiens, UniProt P08912) (P08912 whole entry): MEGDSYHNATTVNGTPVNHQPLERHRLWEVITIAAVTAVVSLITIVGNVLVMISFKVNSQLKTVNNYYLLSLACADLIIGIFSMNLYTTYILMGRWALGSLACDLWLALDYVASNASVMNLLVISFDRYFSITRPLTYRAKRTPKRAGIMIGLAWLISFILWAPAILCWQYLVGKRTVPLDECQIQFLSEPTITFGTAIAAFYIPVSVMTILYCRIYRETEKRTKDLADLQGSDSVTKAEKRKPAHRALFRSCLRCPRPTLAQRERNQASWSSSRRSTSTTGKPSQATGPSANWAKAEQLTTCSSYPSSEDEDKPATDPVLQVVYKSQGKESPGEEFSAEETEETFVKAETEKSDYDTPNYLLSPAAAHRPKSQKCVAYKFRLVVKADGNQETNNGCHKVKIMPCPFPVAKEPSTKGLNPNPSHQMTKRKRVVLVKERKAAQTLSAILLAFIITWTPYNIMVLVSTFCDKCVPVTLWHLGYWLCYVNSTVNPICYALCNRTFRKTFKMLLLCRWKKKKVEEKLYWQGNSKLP
Chain of G-protein coupled receptor 183 (P32249 whole entry): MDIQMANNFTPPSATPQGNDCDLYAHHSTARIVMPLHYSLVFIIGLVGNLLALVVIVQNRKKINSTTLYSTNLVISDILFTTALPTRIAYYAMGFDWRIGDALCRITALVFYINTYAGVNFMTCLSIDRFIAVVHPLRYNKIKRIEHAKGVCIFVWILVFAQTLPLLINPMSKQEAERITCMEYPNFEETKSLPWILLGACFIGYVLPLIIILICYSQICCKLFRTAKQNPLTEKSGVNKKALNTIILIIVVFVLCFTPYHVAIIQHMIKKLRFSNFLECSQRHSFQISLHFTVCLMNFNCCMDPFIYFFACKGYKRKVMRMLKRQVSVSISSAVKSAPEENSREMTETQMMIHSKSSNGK

SMILES: CCN(C(=O)c1cc(COc2cccc(C(C)=O)c2)on1)C(C)c1ccccn1 (centres undefined)
IC50 [1]: 5.55 µM (active)
IC50 [2]: 6.84 µM (active)

SMILES: Cc1noc(C)c1S(=O)(=O)N(C)C[C@@H]1OCCCC[C@@H](C)Oc2ccc(N(C)C)cc2C(=O)N([C@@H](C)CO)C[C@H]1C
AC50 [3]: 10.6 µM (active)

SMILES: COc1cccc(C#Cc2ccc([C@H]3[C@H](CO)N4C(=O)CN(C(=O)Cc5ccccc5)C[C@@H]34)cc2)c1
AC50 [4]: 10.5 µM (active)

SMILES: COc1ccc(NC(=O)N2CCC3(CC2)CN(C(C)=O)[C@@H](CO)c2[nH]c4cc(OC)ccc4c23)cc1
AC50 [9]: 1.73 µM (active)

Now from value to compound:

IC50 [5]: 0.081 µM (active)
SMILES: O=C(/C=C/c1ccc(F)cc1)N1CCN(S(=O)(=O)c2cccs2)CC1

IC50 [6]: > 96.6 µM (inactive)
SMILES: COC(=O)C1=C(C)N(Cc2cccc(C(F)(F)F)c2)C(NCc2ccc3c(c2)OCO3)=NC1c1ccccc1C(F)(F)F (centres undefined)

IC50 [7]: 22.5 µM (inactive)
IC50 [8]: 48.8 µM (inactive)
SMILES: c1ccc(-c2nc(NCCCN3CCOCC3)c3ccccc3n2)cc1
